This note sets out measurements from paper PMC10733197, “Utilization of Rosuvastatin and Endogenous Biomarkers in Evaluating the Impact of Ritlecitinib on BCRP, OATP1B1, and OAT3 Transporter Activity” (Pharmaceutical Research, 2023).

Where only a bound is given, the exact number is not on record here.

One series concerns the target T1, OATP1B1 (Homo sapiens, UniProt Q9Y6L6).
T1 construct: expressed in transfected cells; host or cells: HEK293
T1 sequence (Q9Y6L6 1-691): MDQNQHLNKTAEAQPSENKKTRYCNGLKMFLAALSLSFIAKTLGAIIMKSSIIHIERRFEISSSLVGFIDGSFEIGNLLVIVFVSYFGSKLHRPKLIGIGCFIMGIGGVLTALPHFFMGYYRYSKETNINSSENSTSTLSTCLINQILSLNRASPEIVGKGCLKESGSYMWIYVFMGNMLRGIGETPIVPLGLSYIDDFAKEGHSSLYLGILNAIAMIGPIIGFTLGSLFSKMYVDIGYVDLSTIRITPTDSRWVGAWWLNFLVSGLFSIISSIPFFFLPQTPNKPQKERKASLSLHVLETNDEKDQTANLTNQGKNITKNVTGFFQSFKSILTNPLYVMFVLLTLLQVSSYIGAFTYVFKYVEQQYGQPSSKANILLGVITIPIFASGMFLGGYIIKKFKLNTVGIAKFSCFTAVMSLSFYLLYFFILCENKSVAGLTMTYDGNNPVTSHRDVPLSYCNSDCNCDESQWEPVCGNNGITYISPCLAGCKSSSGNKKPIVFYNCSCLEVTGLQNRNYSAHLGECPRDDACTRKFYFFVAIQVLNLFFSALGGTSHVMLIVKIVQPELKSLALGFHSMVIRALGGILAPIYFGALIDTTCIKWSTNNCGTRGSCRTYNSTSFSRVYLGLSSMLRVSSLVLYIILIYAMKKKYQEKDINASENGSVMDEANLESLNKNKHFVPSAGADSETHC
The experiment in a line: OATP1B1-mediated CP-I uptake inhibition in transfected HEK293 cells. The series is classed as cell-based. As to the method: (§1) Sources of human embryonic kidney (HEK) 293 cells expressing individual transfected human solute carriers (SLC), test substrates, and cell culture reagents, as well as detailed cell culture methods, incubations, and sample processing, have been described previously. SLC included hepatic OATP1B1, OATP1B3, and renal OAT1 and OAT3. […] Likewise, the uptake of non-labeled rosuvastatin (Biosynth, San Diego, CA) at 0.3—0.5 µM was determined for OATP1B1 and OATP1B3 at 1—3 min, and CP-I (Frontier Specialty Chemicals, Logan, UT) at 0.1 µM was determined for OATP1B1 and OATP1B3 at 10 min [14].
(§2) In all cases, ritlecitinib (0.018 to 1000 µM) and metabolite M2 (0.018 to 300 µM) was tested over a wide range of final concentrations dissolved in dimethyl sulfoxide (the final concentration of dimethyl sulfoxide in the assays was 1% v/v). For each transporter, the IC50 was estimated using a four-parameter logistic equation (Eq. 1) using GraphPad Prism software (GraphPad Software Inc, La Jolla, CA).1 %UptakeActivity=Bottom+(Top-Bottom)/1+10^(LogIC50-inhib*HillSlope)
Uptake of CP-I was determined by analysis of the in vitro assay samples using an optimized LC-high resolution mass spectrometry (HRMS) method. In brief, dried samples were reconstituted in 150 µL of 0.1% formic acid and analyzed by LC-HRMS. Analyte separation and detection was achieved using a Shimadzu Nexera high performance LC system (Shimazdu Scientific, MA, USA) coupled to a Sciex API-6600 Q-TOF (time of flight) mass spectrometer with a Turbo IonDrive source (Sciex Corporation, MA, USA). Chromatographic separation was achieved using a Waters Acquity BEH C18 1.7µ 2.1 mm x 100 mm column and a binary mobile phase system consisting of 0.1% v/v formic acid and 0.1% v/v formic acid in acetonitrile, as mobile phase A and B, respectively. The column temperature was held at 60 °C and the flow rate was 0.55 mL/minute. The gradient program had initial conditions of 5% B which was held for 0.9 min, followed by a linear ramp to 95% B over 5.1 min, a hold for 1.0 min, and a return to starting conditions over 0.1 min with re-equilibration for 0.9 min (total run time of 8.0 min). Analyte detection was achieved using an API-6600 Q T-OF mass spectrometer with electrospray ionization (ESI). The mass spectrometer was operated in both TOF-MS and TOF-MS/MS mode with data collected over a 60 to 670 dalton mass range. TOF-MS/MS data were collected in the high-resolution mode. Quantification of CP-I levels was assessed using targeted TOF-MS/MS data with accumulation times of 150 and 35 ms, respectively, for CP-I and the internal standard (ISTD) verapamil. […]

Another series addresses T2, OATP1B3 (Homo sapiens, UniProt Q9NPD5).
T2 construct: expressed in transfected cells; host or cells: HEK293
T2 sequence (Q9NPD5 1-702): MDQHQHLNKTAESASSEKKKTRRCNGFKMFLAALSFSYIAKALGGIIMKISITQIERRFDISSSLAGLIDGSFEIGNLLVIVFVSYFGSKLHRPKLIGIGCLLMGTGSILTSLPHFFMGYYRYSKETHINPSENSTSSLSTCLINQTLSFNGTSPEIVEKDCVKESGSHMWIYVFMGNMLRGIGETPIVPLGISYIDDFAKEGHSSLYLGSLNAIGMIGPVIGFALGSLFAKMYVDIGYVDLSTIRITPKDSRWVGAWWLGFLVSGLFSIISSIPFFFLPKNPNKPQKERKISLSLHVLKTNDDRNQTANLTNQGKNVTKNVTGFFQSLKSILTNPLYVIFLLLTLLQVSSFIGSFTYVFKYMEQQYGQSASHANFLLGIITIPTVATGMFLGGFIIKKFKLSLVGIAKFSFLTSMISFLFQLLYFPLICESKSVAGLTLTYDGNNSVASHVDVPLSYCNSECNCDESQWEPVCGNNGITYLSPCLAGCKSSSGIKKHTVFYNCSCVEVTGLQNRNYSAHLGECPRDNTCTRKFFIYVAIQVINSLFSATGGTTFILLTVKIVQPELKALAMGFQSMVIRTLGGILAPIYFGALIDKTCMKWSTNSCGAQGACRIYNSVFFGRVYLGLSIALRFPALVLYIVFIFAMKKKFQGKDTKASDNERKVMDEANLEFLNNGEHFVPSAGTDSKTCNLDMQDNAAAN
The experiment in a line: OATP1B3-mediated CP-I uptake inhibition in transfected HEK293 cells. The series is classed as cell-based. On the procedure:
as §1, §2
Uptake of CP-I was determined by analysis of the in vitro assay samples using an optimized LC-high resolution mass spectrometry (HRMS) method. In brief, dried samples were reconstituted in 150 µL of 0.1% formic acid and analyzed by LC-HRMS. Analyte separation and detection was achieved using a Shimadzu Nexera high performance LC system (Shimazdu Scientific, MA, USA) coupled to a Sciex API-6600 Q-TOF (time of flight) mass spectrometer with a Turbo IonDrive source (Sciex Corporation, MA, USA). Chromatographic separation was achieved using a Waters Acquity BEH C18 1.7µ 2.1 mm x 100 mm column and a binary mobile phase system consisting of 0.1% v/v formic acid and 0.1% v/v formic acid in acetonitrile, as mobile phase A and B, respectively. The column temperature was held at 60 °C and the flow rate was 0.55 mL/minute. The gradient program had initial conditions of 5% B which was held for 0.9 min, followed by a linear ramp to 95% B over 5.1 min, a hold for 1.0 min, and a return to starting conditions over 0.1 min with re-equilibration for 0.9 min (total run time of 8.0 min). Analyte detection was achieved using an API-6600 Q T-OF mass spectrometer with electrospray ionization (ESI). The mass spectrometer was operated in both TOF-MS and TOF-MS/MS mode with data collected over a 60 to 670 dalton mass range. TOF-MS/MS data were collected in the high-resolution mode. Quantification of CP-I levels was assessed using targeted TOF-MS/MS data with accumulation times of 150 and 35 ms, respectively, for CP-I and the internal standard (ISTD) verapamil. Data were processed using the MultiQuant software package using the targeted mass-to-charge transitions of 328.1 to 268.1201 ± 0.02 daltons and 238.1094 ± 0.02 daltons (summed ions) for CP-I, and 455.2 to 165.0907 ± 0.02 daltons for the ISTD (verapamil), to generate analyte/ISTD area ratios.

With `C=CC(=O)N1C[C@H](Nc2ncnc3[nH]ccc23)CC[C@@H]1C` [Ritlecitinib, ritlecitinib], the “Triggers Drug Interaction Cutoff” value is reported as “Yes” on OATP1B1 (OATP1B1 (CP-I)) and “No” on OATP1B3 (OATP1B3 (CP-I)). Also, the R-value is reported as 1.12 at OATP1B1 (OATP1B1 (CP-I), 1 + (Imax,inlet,u/IC50), cutoff 1.1 (FDA), 1.04 (EMA)) and less than 1.03 at OATP1B3 (OATP1B3 (CP-I), 1 + (Imax,inlet,u/IC50), cutoff 1.1 (FDA), 1.04 (EMA)). Besides, the “Fraction Inhibited” value at OATP1B1 (OATP1B1 (CP-I), Imax,inlet,u/(Imax,inlet,u + IC50) (Eq. 1)) is 0.1; at OATP1B3 (OATP1B3 (CP-I), Imax,inlet,u/(Imax,inlet,u + IC50) (Eq. 1)) it was less than 0.03. The IC50 was 257 ± 8 µM against OATP1B1 (hepatic OATP1B1, CP-I 0.1 µM as substrate, 10 min, HEK293, mean ± SD, n = 3) and more than 1000 µM at OATP1B3 (hepatic OATP1B3, CP-I 0.1 µM as substrate, 10 min, HEK293). Further, the inhibition at 10 min, 1000 µM at OATP1B3 (human, HEK293 cells transfected with OATP1B3, probe coproporphyrin I (CP-I), 0.1 µM, OATP1B3 (CP-I), 1000 µM, read-out: % inhibition at the highest concentration tested) turned out to be 23%.

What is called IC50 is the concentration at which inhibition is half-maximal. A low value points to higher potency.
